Test results published in patent publication US6127392A, “Anthranilic acid analogs” (American Home Products Corporation, priority 1998, dated 2000).

Columns and labels:
[1] = tested on: Isolated Rat Bladder Strips; assay: Inhibition of contractions in isolated rat bladder strips; assay type: cell-based
Procedure: Sprague-Dawley rats (150-200 g) are rendered unconscious by CO2 asphyxiation and then euthanized by cervical dislocation. […] The bladder is opened and then cut into strips 1-2 mm in width and 7-10 mm in length. The strips are subsequently suspended in a 10 mL tissue bath under an initial resting tension of 1.5 g. The strips are held in place by two surgical clips one of which is attached to a fixed hook while the other is attached to an isometric force transducer. […] The carbachol is then washed out and the tissue allowed to relax to its resting level of activity. Following a further 30 min period of recovery an additional 15 mM KCl are introduced into the tissue bath. […] Following stabilization of this enhanced level of contractile activity, incremental increases in the concentration of test compound or vehicle are introduced into the tissue bath. Contractile activity is measured for each compound or vehicle concentration during the last minute of a 30 minute challenge.

[2] = target: T1, calcium-dependent large conductance potassium channels (maxi K^+) (Rattus norvegicus, UniProt Q62976); assay: Potassium channel activation, whole cell patch clamp in isolated rat detrusor cells; assay type: cell-based
T1 construct: Rat detrusor cells were isolated in a manner previously described for guinea-pig detrusor; from tissue; host or cells: freshly isolated detrusor smooth muscle cells from urinary bladder dome of male Sprague-Dawley rats (endogenous channel)
Procedure: Potassium channel activation by compounds of the present invention was established by examining the effect of the compound of Example 1 on calcium-dependent large conductance potassium channels (maxi K^+) as follows:
Rat detrusor cells were isolated in a manner previously described for guinea-pig detrusor (Sheldon and Argentieri, 1995). Male Sprage-Dawley rats (200-400 grams) were euthanized by CO2 inhalation and exsanguination. Their urinary bladders were rapidly removed and placed in 37° C. physiological solution with the following composition (mM): Na glutamate (80.0), NaCl (54.7), KCl (5.0), NaHCO3 (25.0), MgCl2.2H2 O (2.5), D-glucose (11.8) and CaCl2 (0.2) gassed with […], 95%/5% for a final pH of 7.4. The dome of the bladder was isolated from the trigon region and the mucosa was removed. This tissue was then cut into 2-3 mm wide strips and placed in fresh buffer for 1 hour. Tissues were then transferred into 10.0 ml of an isolation buffer containing the above composition plus collagenase type VIII (1.0 mg/ml) and pronase (0.25 mg/ml). After 10 minutes the isolation buffer was replaced with fresh isolation buffer for an additional 10 min. […]
Whole cell recordings were made using broken patch assess. […] After stability was achieved control currents were recorded. […] Currents were recorded for 5 to 10 minutes or until compound effects reached steady state. […]

[3] = tested on: swelling induced chloride channel current; assay: Chloride channel blockade, swelling induced chloride current in bladder cells; assay type: cell-based, guinea pig
Excerpt: Normal human bronchial epithelial cells (NHBE) were commercially available from Clonetics Corporation (San Diego, Calif.) and bladder cells were isolated from rat bladder.
The normal external solution contained (in mM): N-methyl d-Glucamine chloride (NMDGCl). 140, MgCl2 2, CaCl2 2 and 4-(2-hydroxyethyl)-1-piperazine ethanesulfonic acid (HEPES) 10. The normal pipette solution contained (in mM): NMDGCI. 125, HEPES 10, MgCl2 2, ethylenebis(oxonitrilo)tetraacetate (EGTA) 2, and ATPMg 5, the pH adjusted to 7.3 with TRIS. To identify the leak conductance from depolarization, internal Cl ion concentration was reduced to 40 mM using glutamic acid (ECl approximately -31 mV according Nernst equation). The osmolarity for standard external solution was about 280 mOsm. […]
The whole cell voltage clamp recording techniques were utilized to record membrane ionic currents. […] Membrane currents were recorded using an Axopatch 200A Patch Clamp Amplifier (Axon Instruments, Inc., Foster City, Calif.). […]
A: current traces from -100 to 60 mV were recorded in the isotonic, low osmolarity (210 mOsm) and after application of 20 μM Example 1 in same cell. […] Panel B is four superimposed ramp test traces recorded in the presence of control, hypotonic, Example 1 and washout solutions. The C panel depicts the time course of the effect of Example 1 on ICl,swelling at 60 mV monitored from the same cell.

T1 sequence (Q62976 whole entry): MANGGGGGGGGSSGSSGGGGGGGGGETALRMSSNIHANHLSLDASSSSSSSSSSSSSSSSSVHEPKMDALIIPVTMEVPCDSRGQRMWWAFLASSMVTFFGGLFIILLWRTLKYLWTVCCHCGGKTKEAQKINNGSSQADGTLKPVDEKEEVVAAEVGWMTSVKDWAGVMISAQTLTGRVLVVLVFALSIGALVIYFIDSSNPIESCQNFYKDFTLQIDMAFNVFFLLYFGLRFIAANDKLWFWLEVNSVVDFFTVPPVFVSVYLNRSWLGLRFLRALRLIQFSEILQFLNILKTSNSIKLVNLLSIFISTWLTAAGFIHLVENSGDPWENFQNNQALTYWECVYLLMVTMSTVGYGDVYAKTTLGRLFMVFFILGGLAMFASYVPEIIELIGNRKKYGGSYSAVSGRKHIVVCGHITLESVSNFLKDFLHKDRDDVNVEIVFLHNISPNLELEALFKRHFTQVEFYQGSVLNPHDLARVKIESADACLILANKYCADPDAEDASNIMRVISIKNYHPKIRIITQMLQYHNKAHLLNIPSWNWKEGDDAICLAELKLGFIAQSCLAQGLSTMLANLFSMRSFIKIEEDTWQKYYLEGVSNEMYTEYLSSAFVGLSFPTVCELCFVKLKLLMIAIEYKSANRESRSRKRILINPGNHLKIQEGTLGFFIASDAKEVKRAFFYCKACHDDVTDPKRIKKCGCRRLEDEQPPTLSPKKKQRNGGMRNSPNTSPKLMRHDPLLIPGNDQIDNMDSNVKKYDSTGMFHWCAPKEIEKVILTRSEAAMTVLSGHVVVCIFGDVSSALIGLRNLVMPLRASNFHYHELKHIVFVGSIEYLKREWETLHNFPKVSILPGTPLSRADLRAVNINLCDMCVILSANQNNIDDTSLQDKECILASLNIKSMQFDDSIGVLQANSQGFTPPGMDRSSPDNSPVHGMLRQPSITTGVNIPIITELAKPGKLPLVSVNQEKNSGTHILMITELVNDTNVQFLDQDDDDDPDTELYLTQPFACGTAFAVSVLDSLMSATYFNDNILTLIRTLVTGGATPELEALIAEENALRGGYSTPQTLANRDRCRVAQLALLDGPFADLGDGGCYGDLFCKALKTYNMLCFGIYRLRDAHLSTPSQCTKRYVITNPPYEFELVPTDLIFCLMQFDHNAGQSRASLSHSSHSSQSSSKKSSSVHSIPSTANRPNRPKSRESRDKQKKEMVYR

C/C(=C\c1ccc(C(F)(F)F)cc1)C(=O)Nc1ccccc1C(=O)O [1, Step 4]
IC50 (A)/IC50 (B) ([1]; aorta/bladder IC50 ratio, selectivity): 39.6

COc1ccc(Cl)cc1C(=O)NCCc1ccc(S(=O)(=O)NC(=O)NC2CCCCC2)cc1 [glyburide, reference compound]
effect of glyburide on outward current ([2]; glyburide 5 μM added to the superfusate): no effect

C/C(=C\c1ccc(C(F)(F)F)cc1)C(=O)Nc1ccccc1C(=O)[O-].[Li+] [Example 1, Step 4, (E)-2-[2-Methyl-3-(4-trifluoromethyl-phenyl)-acryloylamino]-benzoic acid lithium salt]
effect on outward current (maxi K^+ current) ([2]; 10 μM in superfusate, isolated rat bladder cells): increase in outward current that was reversible upon washout
effect on swelling induced chloride current ([3]; 20 μM, guinea pig bladder cell, low osmolarity 210 mOsm): significantly reduced swelling induced chloride current
inhibition at 20 µM ([3]; Cavia porcellus, Bladder, Swelling ICl, 60 mV, 210 mOsm): 67%

COc1ccc(/C=C/C(=O)Nc2ccccc2C(=O)O)cc1OC [Tranilast, reference compound]
smooth muscle relaxant potency and bladder selectivity ([1]; bladder/aorta IC50 ratios, Table 1): not to be a potent or bladder selective smooth muscle relaxant
